Experiments:
[1] = Stability of test compound dosing formulation; format: physicochemical
Method: LGX818 was dissolved in 0.5% CMC/0.5% Tween 80.
MEK162 was dissolved in 1% CMC/0.5% Tween 80.

[2] = Tolerability (body weight change, adverse events) in study TRP-377-HT29-XEF; format: in vivo; settings: mean ± SEM, day of maximum change in parentheses; HT-29 tumor-bearing nude mice; LGX818 20 mg/kg po qd, MEK162 3.5 mg/kg po bid, cetuximab 20 mg/kg ip 2qw
Method: Animal wellbeing and behavior, including grooming and ambulation were monitored twice daily. General health of mice was monitored and mortality recorded daily. Any moribund animals were sacrificed.
(§1) Animals were weight at dosing day(s) and dose was body weight adjusted, dosing volume was 10 mL/kg. Tumor dimensions and body weights were collected at the time of randomization and twice weekly thereafter for the study duration. The following data were provided after each day of data collection: incidence of mortality, individual and group average body weights, and individual and group average tumor volume.
The % change in body was calculated as (BWcurrent−BWinitial)/(BWinitial)×100. Data is presented as percent body weight change from the day of treatment initiation.

[3] = tested on: HT-29 BRAF mutant colorectal cancer (CRC) xenograft tumor model; test: Anti-tumor efficacy in HT-29 colon cancer xenograft model (study TRP-377-HT29-XEF); format: in vivo, female nude mice (Mus musculus); settings: HT-29 xenograft, day 43 after 21 days of treatment; LGX818 20 mg/kg po qd, MEK162 3.5 mg/kg po bid, cetuximab 20 mg/kg ip 2qw
Method: as §1
All data were expressed as mean±standard error of the mean (SEM). […] For all statistical evaluations, the level of significance was set at p<0.05. Significance compared to the vehicle control group is reported unless otherwise stated.

Structure (SMILES)	Stability of dosing formulation ([1]; dissolved in 1% CMC/0.5% Tween 80, room temperature)	% Maximum BW change (day) [2]	T/C (percent tumor volume change treated over control group) [3] [%]	Stability of dosing formulation ([1]; dissolved in 0.5% CMC/0.5% Tween 80, room temperature)
Cn1cnc2c(F)c(Nc3ccc(Br)cc3F)c(C(=O)NOCCO)cc21 [MEK162, 6-(4-bromo-2-fluorophenylamino)-7-fluoro-3-methyl-3H-benzoimidazole-5-carboxylic acid (2-hydroxyethoxy)-amide]	stable for at least one week	−4.1 ± 1.02 (day 29) %	28	–
COC(=O)N[C@@H](C)CNc1nccc(-c2cn(C(C)C)nc2-c2cc(Cl)cc(NS(C)(=O)=O)c2F)n1 [LGX818, methyl N-[(2S)-1-({4-[3-(5-chloro-2-fluoro-3-methanesulfonamidophenyl)-1-(propan-2-yl)-1H-pyrazol-4-yl]pyrimidin-2-yl}amino)propan-2-yl]carbamate]	–	−1.6 ± 0.98 (day 29) %	42	stable for at least one week

Reference: patent US20230044943A1, “Pharmaceutical Combinations” (ARRAY BIOPHARMA INC., priority 2016, published 2023)
